Test results from patent US5633231A, “Valine-containing pseudopeptides with antiviral activity” (Bayer Aktiengesellschaft, priority 1993, dated 1997).

How the values were obtained:
[1] = tested on: human embryonic lung fibroblast (HELF) cell cultures; test: Anti-cellular (toxic and cytostatic) effect on HELF cells in the same screening test; assay type: cell-based; details: 6 days at 37° C.
Experimental: (§1) The anti-HCMV effect was determined in a screening test system in 96-well microtitre plates with the aid of human embryonic lung fibroblast (HELF) cell cultures. The influence of the substances on the spread of the cytopathogenic effect was compared with that of the reference substance ganciclovir ([…]® sodium), a clinically approved anti-HCMV chemotherapeutic agent. The substances, dissolved (50 mM) in DMSO (dimethyl sulphoxide), are investigated on microtitre plates (96-well) at final concentrations of 1000-0.00048 μM (micromolar) in double determinations (4 substances/plate). In this test, both the toxic and cytostatic effects of the substances are recorded. […] After staining with neutral red and fixing with formalin/methanol, the plates are evaluated using a projection microscope (plaque viewer).

HCMV (Davis) = test: Anti-HCMV (Davis) activity: inhibition of the cytopathogenic effect in HELF cell cultures, 96-well screening test; assay type: cell-based, human cytomegalovirus
Experimental: as §1

- IC50 (HCMV (Davis); Human betaherpesvirus 5, 144 h, read-out: IC50 (μM) (HCMV) = concentration which elicits 50% inhibition of the CPE, HCMV (Davis)-infected HELF cells, 6 days, neutral red staining): 2 to 4 µM
SMILES: Nc1nc(O)c2ncn(COC(CO)CO)c2n1 [Cymevene^R Na, ganciclovir]
- CIC50 (μM) (HELF) = highest concentration at which no obvious anticellular effect is evident [1]: 125 µM
- SI (selectivity index) (HCMV (Davis); HELF versus HCMV, definition given only as a drawing): 32-64
